From patent US10941157B2, “Pesticidal compositions and uses thereof” (Gilead Apollo, LLC, priority 2015, dated 2021)
Converted amounts (≈) assume the structure as drawn. Like-named read-outs stand apart in the source and are kept apart here.

What was measured:
[1] = test system: Fusarium moniliforme (Fm); assay: In vitro pathogen growth inhibition assay, Fm; type: cell-based; details: Fusarium verticillioides
Method in brief: (§1)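 Value reported is the compound concentration reaching ≥90% growth inhibition, from OD readings at 24 and 48 h after blank subtraction, confirmed visually. Inoculum was spores diluted in 17% V8 medium, except Rs, using 1.5 mm mycelial plugs in ¼ PDB; actual compound concentration corrected via OD600.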

Puccinia triticina = assay: Foliar protection test for wheat leaf rust control; type: in vivo; details: foliar application to wheat (Triticum aestivum cv. Winterhawk), evaluated 10 days later
Fusarium graminearum [2] = type: in vivo; details: spray on flowering Triticum aestivum cv. Samson, inoculated 24 hours after treatment, evaluated 14 days later
Phakopsora pachyrhizi = assay: Foliar protection test for Asian soybean rust control; type: in vivo; details: foliar application to soybean (Glycine max AG4832), percent disease area evaluated 14 days later
Rhizoctonia solani (Rs) = assay: In vitro pathogen growth inhibition assay, Rs (mycelial plugs); type: cell-based; details: Rhizoctonia solani, 48 h, mycelial plugs
Method in brief: (§2)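 Spores in 17% V8 liquid medium, or 1.5 mm Rs mycelial plugs in ¼ PDB, incubated with compound; final concentration checked by OD600 for precipitation. OD readings at 24 and 48 h, blank-subtracted, plus visual ratings; value is concentration giving ≥90% growth inhibition.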

[3] = test system: Fusarium virguliforme (Fv); assay: In vitro pathogen growth inhibition assay, Fv; type: cell-based
Method in brief: as §2

Fusarium graminearum [4] = type: in vivo; details: corn from treated seeds, 0.025 mg/seed, F. graminearum inoculated
[5] = test system: Collectotrichum graminicola (Cg); assay: In vitro pathogen growth inhibition assay, Cg; type: cell-based; details: 48 h
Method in brief: as §1

[6] = test system: Blumeria graminis f. sp. hordei; assay: Early foliar disease control via seed treatment (barley powdery mildew); type: in vivo; details: seed treatment rate 0.025 mg/seed; barley inoculated 7 days after planting, evaluated 7 days later
Protocol: Barley seeds (Hordeum vulgare cv. Perry or Conlon) were treated with a test compound dissolved in pure acetone, in which the acetone solution (1 mL) was used per 50 seeds in glass jars in a fume hood. The seeds were swirled in the glass jars by hand until no obvious presence of acetone remained and the seeds were mostly dry. Plants were grown for 7 days in 2-inch square pots containing Metromix 200 medium amended with fertilizer. […] After inoculation with the pathogen of Blumeria graminis f. sp. hordei, plants were kept at conditions of 20 to 22° C., 200 uM of light, 70% humidity to facilitate infection and disease development. At 7 days after planting (1st true leaf fully expanded), the plants were moved to the cooler chamber and inoculated by shaking well-colonized, untreated stock plants above the treated material. […] Efficacy was evaluated in 7 days later by examining leaves for colonization and growth of powdery mildew. Each side of each leaf was assigned a severity rating of 0, 1, 5, 10, 25, 50, 75, or 100 percent diseased area. Table 14 lists the results of barley powdery mildew control upon seed treatment with test compounds.

[7] = ≥90% growth inhibition, 48 hours, vs 2% DMSO control, read-out: Compound Concentration (ppm) sufficient for ≥90% inhibition of Fm
[8] = ≥90% growth inhibition, 48 hours, vs 2% DMSO control, read-out: Compound Concentration (ppm) sufficient for ≥90% inhibition of Rs
[9] = ≥90% growth inhibition, 48 hours, vs 2% DMSO control, read-out: Compound Concentration (ppm) sufficient for ≥90% inhibition of Fv
[10] = ≥90% growth inhibition, 48 hours, vs 2% DMSO control, read-out: Compound Concentration (ppm) sufficient for ≥90% inhibition of Cg

Compound	IC90 ([1]; ≥90% inhibition, 48 hours vs 2% DMSO control, read-out: Compound Concentration (ppm) sufficient for ≥90% inhibition of growth, Fm)	Wheat Leaf Rust Control at a compound concentration of 10 ppm or lower (Puccinia triticina)	Wheat Fusarium Head Blight Control at a compound concentration of 25 ppm or lower (Fusarium graminearum [2])	Asian Soybean Rust Control at a compound concentration of 25 ppm or lower (Phakopsora pachyrhizi)	IC90 (Rhizoctonia solani (Rs); ≥90% inhibition, 48 hours vs 2% DMSO control, read-out: Compound Concentration (ppm) sufficient for ≥90% inhibition of growth, Rs)	IC90 ([3]; ≥90% inhibition, 48 hours vs 2% DMSO control, read-out: Compound Concentration (ppm) sufficient for ≥90% inhibition of growth, Fv)	Plant Height (Fusarium graminearum [4]; Table 12)	Plant Height (Fusarium graminearum [4]; Table 13)	IC90 ([5]; ≥90% inhibition, 48 hours vs 2% DMSO control, read-out: Compound Concentration (ppm) sufficient for ≥90% inhibition of growth, Cg)	IC90 [1, 7]	Barley Powdery Mildew Reduction (%) [6]	IC90 (Rhizoctonia solani (Rs); [8])	IC90 [3, 9]	IC90 [5, 10]
COc1ccc(F)cc1[C@H](Cn1c(=O)n(C(C)(C)C(=O)NC(C)C)c(=O)c2c(C)c(-n3nccn3)sc21)OCCC#N [Compound I-095, (R)-2-(1-(2-(2-cyanoethoxy)-2-(5-fluoro-2-methoxyphenyl)ethyl)-5-methyl-2,4-dioxo-6-(2H-1,2,3-triazol-2-yl)-1,4-dihydrothieno[2,3-d]pyrimidin-3 (2H)-yl)-N-isopropyl-2-methylpropanamide]	0.08 µg/mL (≈ 0.134 µM)	AA (≥85% control of wheat leaf rust)	B (from 50 to 69% control of wheat fusarium head blight)	AA (≥85% control of Asian soybean rust)	0.08 µg/mL (≈ 0.134 µM)	0.08 µg/mL (≈ 0.134 µM)	39.41 cm	43.97 cm	0.08 µg/mL (≈ 0.134 µM)	–	–	–	–	–
COc1ccc(F)cc1[C@H](Cn1c(=O)n(C(C)(C)C(=O)NC(C)C)c(=O)c2c(C)c(-n3cccn3)sc21)OCCC#N [Compound I-191, (R)-2-(1-(2-(2-cyanoethoxy)-2-(5-fluoro-2-methoxyphenyl)ethyl)-5-methyl-2,4-dioxo-6-(1H-pyrazol-1-yl)-1,4-dihydrothieno[2,3-d]pyrimidin-3 (2H)-yl)-N-isopropyl-2-methylpropanamide]	–	AA (≥85% control of wheat leaf rust)	C (from 25 to 49% control of wheat fusarium head blight)	A (from 70% to 84% control of Asian soybean rust)	–	–	35.50 cm	–	–	0.08 µg/mL (≈ 0.134 µM)	94%	0.08 µg/mL (≈ 0.134 µM)	0.4 µg/mL (≈ 0.67 µM)	≥ 0.4 µg/mL
COc1ccccc1[C@H](Cn1c(=O)n(C(C)(C)C(=O)NC(C)C)c(=O)c2c(C)c(-n3nccn3)sc21)OCCC#N [Compound I-193, (R)-2-(1-(2-(2-cyanoethoxy)-2-(2-methoxyphenyl)ethyl)-5-methyl-2,4-dioxo-6-(2H-1,2,3-triazol-2-yl)-1,4-dihydrothieno[2,3-d]pyrimidin-3 (2H)-yl)-N-isopropyl-2-methylpropanamide]	–	AA (≥85% control of wheat leaf rust)	B (from 50 to 69% control of wheat fusarium head blight)	AA (≥85% control of Asian soybean rust)	–	–	–	40.66 cm	–	0.08 µg/mL (≈ 0.138 µM)	96%	0.08 µg/mL (≈ 0.138 µM)	0.4 µg/mL (≈ 0.69 µM)	≥ 0.08 µg/mL
